This passage reports Ki results from PMC10411625, “Rationally designed stapled peptides allosterically inhibit PTBP1–RNA-binding” (Chemical Science, 2023).

The experiment concerns the target T1, PTBP1 RRM12 (Homo sapiens, UniProt P26599).
T1 construct: (P57-V265); MBP (from pMAL vector); His tag; made in house; host or cells: E. coli BL21 DE3 RIL
T1 sequence (P26599 57-265): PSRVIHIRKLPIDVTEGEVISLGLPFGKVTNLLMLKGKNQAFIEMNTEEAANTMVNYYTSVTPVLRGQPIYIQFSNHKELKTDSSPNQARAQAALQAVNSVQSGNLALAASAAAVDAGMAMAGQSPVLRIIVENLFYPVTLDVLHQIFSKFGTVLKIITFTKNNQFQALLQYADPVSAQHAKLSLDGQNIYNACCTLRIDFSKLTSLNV
The experiment in a line: Competitive fluorescence polarization assay between RRM12 and RNA-2. The experiment is classed as binding. An excerpt: For the initial design we used the i, i + 4 strategy where two (S)-pentenyl alanines (S5) were introduced in positions with three other amino acids in between. We picked three different amino acid pairs to replace with the S5 amino acids based on their orientation as observed in the NMR structures (P-2, P-3 and P-4, Fig. 2B and C).[25] To prevent the staple from disturbing the interaction between the ligand and the protein we chose positions facing away from the binding site forming the pairs Ala145/Ala149, Gln148/Gln152, and Ala149/Ala153. The three peptides were synthesized on Rink amide resin and the linear peptides were treated with a Grubbs catalyst to connect the S5 residues. To avoid a mixture of E/Z-diastereomers we reduced the alkene in the linker of the staple using a solution phase hydrogenation protocol.[43] The linear equivalent P-1 was synthesized for comparison but had to be extended on the C-terminus with an arginine residue to improve its solubility. The C-terminus is away from the binding surface and this modification was therefore not expected to have an impact on the binding affinity. The peptides were tested in a competitive fluorescence polarization assay using the RRM12 construct and RNA-2 (Fig. 2C and S2 ^†). […] As the staple is expected to stabilize the α-helical conformation we used circular dichroism (CD) spectroscopy to evaluate the helicity of the peptides. […] It is possible that although P-4 was more helical than P-3, the replacement of Gln148 with the hydrophobic linker disturbed the interaction since the side chain amide potentially interacts with the RRM1 surface. […]
size exclusion chromatography (Superdex 75 16/60 or 26/60) with SEC buffer (50 mM Tris, 200 mM NaCl). Protein homogeneity was assessed by the size exclusion chromatogram and purity was checked by SDS-PAGE analysis to be >= 90%.
The gene encoding for SRSF1-RRM12 (1-195) was subcloned into pOPIN-His expression vector and expressed in E. coli BL21 (DE3). A pre-culture of transformed bacteria was made followed by expression in LB-Medium (100 µg/ml Ampicillin, 1 mM IPTG, 18 °C, 160 rpm overnight) after growing the culture at 37 °C, 160 rpm to an OD600 of 0.6. The harvested cells (5000 x g, 4 °C, 15 min) were resuspended in Buffer ASRSF1 (50 mM Na2HPO4 pH 8.0, 300 mM KCl, 50 mM L-Arg, 50 mM L-Gly, 1.5 mM MgCl2) supplemented with 1 mM PMSF followed by lysis through sonification. The protein was purified using a HisTrap HP 5 ml column (GE-Healthcare) using a gradient of Buffer BSRSF1 (50 mM Na2HPO4 pH 8.0, 300 mM KCl, 50 mM L-Arg, 50 mM L-Gly, 1.5 mM MgCl2, 500 mM Imidazole) followed by dialysis into wash buffer (50 mM Na2HPO4 pH 8.0, 300 mM KCl, 50 mM L-Arg, 50 mM L-Gly, 1.5 mM MgCl2, 40 mM Imidazole) and a second run of the affinity column. The protein containing fractions were afterwards dialyzed into wash buffer with tag-cleavage using His-tagged 3C protease. The cleaved construct was subsequently used for a third affinity column run collecting the unbound fraction which was dialyzed into storage buffer (20 mM Na2HPO4 pH 8.0, 150 mM KCl, 50 mM L-Arg, 50 mM L-Gly, 1.5 mM MgCl2, 0.2 mM EDTA, 1 mM TCEP).
Purification of hnRNP A2/B1
The MBP-tagged hnRNP A2/B1 construct (1-251) was expressed from a pOPIN-His-MBP vector in E. coli BL21 (DE3) RIPL cells. A pre-culture in TB (0.01% lactose, 2mM MgSO4, 100 µg/ml ampicillin, 50 µg/ml chloramphenicol) was used to inoculate the expression culture with a starting OD600 of 0.05 at 37 °C. Expression was autoinduced at 37 °C for 4 h followed by expression over night at 25 °C. Harvested cells (5000 x g, 15 min, 4 °C) were resuspended in Buffer AhnRNPA2/B1 (50 mM HEPES pH 8.0, 300 mM NACl, 20 mM Imidazole, 1 mM TCEP) supplemented with 1 mM PMSF) and lysed with a microfluidizer.
Immobilized metal affinity chromatography was performed using a HisTrap FF crude 5 ml column. The loaded protein was washed with wash buffer (50 mM HEPES pH 8.0, 300 mM NaCl, 30 mM Imidazole, […]
A general note: Polarisation of emitted light reports the rotation of a fluorescent probe.

[1] abbreviates: Fig. 2C, 5 nM FAM-RNA-2, protein at 50-70 % probe binding, FP buffer pH 8.0, 20 °C, 30 min, n.b. given for inactive peptides, read-out: Ki, competitive FP assay between RRM12 and RNA-2.

Where two headings read alike, the source gives them in different places.

What is called Ki is the equilibrium dissociation constant of an inhibitor or competing ligand from its target. Take `CC(=O)N[C@@H](CC(N)=O)C(=O)N[C@@H](CCC(N)=O)C(=O)N[C@@]1(C)CCCCCCCC[C@@](C)(C(=O)N[C@@H](C)C(=O)N[C@@H](CC(C)C)C(=O)N[C@@H](CCC(N)=O)C(=O)N[C@@H](C)C(=O)N[C@H](C(=O)N[C@@H](CC(N)=O)C(N)=O)C(C)C)NC(=O)[C@H](CCC(N)=O)NC(=O)[C@H](C)NC(=O)[C@H](CCCNC(=N)N)NC1=O` [Peptide P-2]: the Ki under setting [1] came out at 11.6 µM.

For the compound `CC(=O)N[C@@H](CC(N)=O)C(=O)N[C@@H](CCC(N)=O)C(=O)N[C@@]1(C)CCCC=CCCCC2(CCCC=CCCC[C@](C)(C(=O)N[C@H](C(=O)N[C@@H](CC(N)=O)C(N)=O)C(C)C)NC(=O)[C@H](CCC(N)=O)NC(=O)[C@H](CC(C)C)NC(=O)[C@H](C)NC2=O)NC(=O)[C@H](CCC(N)=O)NC(=O)[C@H](C)NC(=O)[C@H](CCCNC(=N)N)NC1=O` (stereo partly drawn) [Peptide P-6], the Ki under setting [1] was determined as 9.3 µM and the Ki (Fig. 3C experiment, competitive FP with RNA-2, read-out: P-6 Ki, construct RRM12) stood at 8 ± 7.1 µM.
